Experiments:
[1] = target: Carbonic anhydrase 1 (Homo sapiens, UniProt P00915)
[2] = target: Carbonic anhydrase 7 (Homo sapiens, UniProt P43166)
[3] = target: Carbonic anhydrase 2 (Homo sapiens, UniProt P00918)

Chain of Carbonic anhydrase 7 (P43166 whole entry): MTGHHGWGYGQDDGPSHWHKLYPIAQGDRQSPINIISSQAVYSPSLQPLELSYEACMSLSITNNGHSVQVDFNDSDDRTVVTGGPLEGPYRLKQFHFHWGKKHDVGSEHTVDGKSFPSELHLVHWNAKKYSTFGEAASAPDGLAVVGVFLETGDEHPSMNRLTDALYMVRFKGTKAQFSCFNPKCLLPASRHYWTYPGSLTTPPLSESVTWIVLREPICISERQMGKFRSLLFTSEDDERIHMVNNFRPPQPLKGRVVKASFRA
Chain of Carbonic anhydrase 1 (P00915 whole entry): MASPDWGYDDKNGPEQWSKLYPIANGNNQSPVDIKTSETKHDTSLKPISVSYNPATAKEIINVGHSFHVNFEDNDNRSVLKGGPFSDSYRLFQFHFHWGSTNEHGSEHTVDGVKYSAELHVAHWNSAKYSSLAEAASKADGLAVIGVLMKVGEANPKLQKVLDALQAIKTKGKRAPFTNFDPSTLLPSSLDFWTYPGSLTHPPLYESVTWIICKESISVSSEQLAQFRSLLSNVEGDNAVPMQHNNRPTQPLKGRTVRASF

Ki [1] [µM]	Ki [2] [µM]	Ki [3] [µM]	Structure (SMILES)
0.061	0.0062	0.05	NS(=O)(=O)c1ccc(NC(=O)Cc2cccs2)cc1
0.108	0.0047	0.107	NS(=O)(=O)c1ccc(NC(=O)Cc2ccccc2)cc1
0.068	0.0076	0.053	NS(=O)(=O)c1ccc(CCNC(=O)Cc2cccs2)cc1

Structure (SMILES)	Ki [1] [µM]	Ki [2] [µM]	Ki [3] [µM]
NS(=O)(=O)c1ccc(CNC(=O)Cc2cccs2)cc1	0.06	0.0071	0.052
